What all share (format): ADME, organism-based
Settings in all cases: in vivo; call rule not given here

A short description of data set [1]: Drug recovery in urine of Sprague-Dawley rat at 2 mg/kg, po measured over 48 hrs by liquid scintillation counting analysis. Details: dose 2 mg/kg, route oral.
A short description of data set [2]: Drug recovery in feces of Sprague-Dawley rat at 2 mg/kg, po measured over 48 hrs by liquid scintillation counting analysis. Set-up: dose 2 mg/kg, route oral.
The subject of data set [3] is Rattus norvegicus. In words: Total drug recovery in Sprague-Dawley rat at 2 mg/kg, po measured over 48 hrs by liquid scintillation counting analysis. Set-up: dose 2 mg/kg, route oral.
The subject of data set [4] is Plasma. The data set is described as follows: Drug metabolism in Sprague-Dawley rat plasma assessed as formation of (S)-2-((1R,2S,4R,5S)-5-hydroxybicyclo[2.2.1]heptan-2-ylamino)-5-isopropyl-5-methylthiazol-4(5H)-one at 2 mg/kg, po measured at 0.5 hrs by LC-MS/HPLC radiometric analysis. Details: dose 2 mg/kg, route oral.
For data set [5], the system named is Plasma. In words: Drug metabolism in Sprague-Dawley rat plasma assessed as formation of (S)-2-((1R,2S,4R,5R)-5-hydroxybicyclo[2.2.1]heptan-2-ylamino)-5-isopropyl-5-methylthiazol-4(5H)-one at 2 mg/kg, po measured at 0.5 hrs by LC-MS/HPLC radiometric analysis. Set-up: dose 2 mg/kg, route oral.
For data set [6], the system named is Plasma. The data set is described as follows: Drug level in Sprague-Dawley rat plasma at 2 mg/kg, po measured at 0.5 hrs by LC-MS/HPLC radiometric analysis. Details: dose 2 mg/kg, route oral.
Data set [7] can be described thus: Drug metabolism in Sprague-Dawley rat feces assessed as formation of trihydroxy norbornyl metabolite at 2 mg/kg, po measured over 24 hrs by LC-MS/HPLC radiometric analysis. Details: dose 2 mg/kg, route oral.
Data set [8] can be described thus: Drug metabolism in Sprague-Dawley rat feces assessed as formation of (1R,2R,4R,5S)-5-((S)-5-isopropyl-5-methyl-4-oxo-4,5-dihydrothiazol-2-ylamino)bicyclo[2.2.1]heptan-2-yl hydrogen sulfate at 2 mg/kg, po measured over 24 hrs by LC-MS/HPLC radiometric analysis. Details: dose 2 mg/kg, route oral.
Data set [9] has as its system Plasma. The data set is described as follows: Drug metabolism in Sprague-Dawley rat plasma assessed as formation of (S)-5-isopropyl-5-methyl-2-((1R,2S,4R)-5-oxobicyclo[2.2.1]heptan-2-ylamino)thiazol-4(5H)-one at 2 mg/kg, po measured at 0.5 hrs by LC-MS/HPLC radiometric analysis. Details: dose 2 mg/kg, route oral.
Data set [10] has as its system Plasma. The data set is described as follows: Drug metabolism in Sprague-Dawley rat plasma assessed as formation of (S)-2-((1S,2S,4R)-bicyclo[2.2.1]heptan-2-ylamino)-5-((R)-1-hydroxypropan-2-yl)-5-methylthiazol-4(5H)-one at 2 mg/kg, po measured at 0.5 hrs by LC-MS/HPLC radiometric analysis. Details: dose 2 mg/kg, route oral.
Data set [11] has as its system Plasma. In words: Drug metabolism in Sprague-Dawley rat plasma assessed as formation of (S)-2-((1S,2S,4R)-bicyclo[2.2.1]heptan-2-ylamino)-5-((S)-1-hydroxypropan-2-yl)-5-methylthiazol-4(5H)-one at 2 mg/kg, po measured at 0.5 hrs by LC-MS/HPLC radiometric analysis. Set-up: dose 2 mg/kg, route oral.
Data set [12] in a line: Drug metabolism in Sprague-Dawley rat urine assessed as formation of (S)-2-((1R,2S,4R,5S)-5-hydroxybicyclo[2.2.1]heptan-2-ylamino)-5-isopropyl-5-methylthiazol-4(5H)-one at 2 mg/kg, po measured over 24 hrs by LC-MS/HPLC radiometric analysis. Details: dose 2 mg/kg, route oral.
The nature of data set [13]: Drug metabolism in Sprague-Dawley rat urine assessed as formation of (S)-2-((1R,2S,4R,5R)-5-hydroxybicyclo[2.2.1]heptan-2-ylamino)-5-isopropyl-5-methylthiazol-4(5H)-one at 2 mg/kg, po measured over 24 hrs by LC-MS/HPLC radiometric analysis. Details: dose 2 mg/kg, route oral.
The nature of data set [14]: Drug metabolism in Sprague-Dawley rat urine assessed as formation of (S)-2-((1S,2S,4R,6R)-6-hydroxybicyclo[2.2.1]heptan-2-ylamino)-5-isopropyl-5-methylthiazol-4(5H)-one at 2 mg/kg, po measured over 24 hrs by LC-MS/HPLC radiometric analysis. Set-up: dose 2 mg/kg, route oral.
Data set [15] is described as follows: Drug metabolism in Sprague-Dawley rat urine assessed as formation of (S)-2-((1S,2S,4R)-bicyclo[2.2.1]heptan-2-ylamino)-5-((R)-1-hydroxypropan-2-yl)-5-methylthiazol-4(5H)-one at 2 mg/kg, po measured over 24 hrs by LC-MS/HPLC radiometric analysis. Details: dose 2 mg/kg, route oral.
Data set [16] is described as follows: Drug metabolism in Sprague-Dawley rat urine assessed as formation of (S)-5-isopropyl-5-methyl-2-((1R,2S,4R)-5-oxobicyclo[2.2.1]heptan-2-ylamino)thiazol-4(5H)-one at 2 mg/kg, po measured over 24 hrs by LC-MS/HPLC radiometric analysis. Details: dose 2 mg/kg, route oral.
A short description of data set [17]: Drug metabolism in Sprague-Dawley rat urine assessed as formation of (S)-2-((1R,2S,4R,5S)-5-hydroxybicyclo[2.2.1]heptan-2-ylamino)-5-((S)-1-hydroxypropan-2-yl)-5-methylthiazol-4(5H)-one at 2 mg/kg, po measured over 24 hrs by LC-MS/HPLC radiometric analysis. Set-up: dose 2 mg/kg, route oral.
Data set [18] in a line: Drug metabolism in Sprague-Dawley rat urine assessed as formation of (S)-2-((1R,2S,4R,5S)-5-hydroxybicyclo[2.2.1]heptan-2-ylamino)-5-(2-hydroxypropan-2-yl)-5-methylthiazol-4(5H)-one at 2 mg/kg, po measured over 24 hrs by LC-MS/HPLC radiometric analysis. Details: dose 2 mg/kg, route oral.
Data set [19] in a line: Drug metabolism in Sprague-Dawley rat urine assessed as formation of (S)-2-((1S,2S,4R,6R)-6-hydroxybicyclo[2.2.1]heptan-2-ylamino)-5-((S)-1-hydroxypropan-2-yl)-5-methylthiazol-4(5H)-one at 2 mg/kg, po measured over 24 hrs by LC-MS/HPLC radiometric analysis. Details: route oral, dose 2 mg/kg.
Data set [20] in a line: Drug metabolism in Sprague-Dawley rat urine assessed as formation of trihydroxy norbornyl metabolite at 2 mg/kg, po measured over 24 hrs by LC-MS/HPLC radiometric analysis. Details: dose 2 mg/kg, route oral.
A short description of data set [21]: Drug level in Sprague-Dawley rat urine at 2 mg/kg, po measured over 24 hrs by LC-MS/HPLC radiometric analysis. Details: dose 2 mg/kg, route oral.
Data set [22] can be described thus: Drug level in Sprague-Dawley rat feces at 2 mg/kg, po measured over 24 hrs by LC-MS/HPLC radiometric analysis. Details: dose 2 mg/kg, route oral.
The test system of data set [23] is Rattus norvegicus. The data set is described as follows: Total drug recovery in female Sprague-Dawley rat treated with [14C]-AMG 221 at 2 mg/kg, po measured over 48 hrs by liquid scintillation counting analysis. Details: dose 2 mg/kg, route oral.
Data set [24] can be described thus: Retention time of the compound in bile duct cannulated Sprague-Dawley rat bile treated with [14C]-(S)-2-((1R,2S,4R,5S)-5-hydroxybicyclo[2.2.1]heptan-2-ylamino)-5-isopropyl-5-methylthiazol-4(5H)-one at 5 mg/kg, po measured over 48 hrs by LC-MS/HPLC radiometric analysis. Details: dose 5 mg/kg, route oral.

The results in this text go back to ChEMBL document CHEMBL3525943, “Regiospecific and stereospecific triangulation of the structures of metabolites formed by sequential metabolism at multiple prochiral centers” (Drug Metab Dispos, 2012).

With `CC(C)[C@]1([14CH3])SC(N[C@H]2C[C@@H]3CC[C@H]2C3)=NC1=O`, the Drug recovery is on record as 64% in [1], 14% in [2] and 81% in the data set with Rattus norvegicus [3]. Further, the Drug metabolism entry (with Plasma [4]; with Plasma [5]; in [7]; in data set [8]; with Plasma [9]; in the data set with Plasma [10]) was “metabolite_detected” throughout. For the same compound, the Drug metabolism result (in the data set on Plasma [11]; in data set [12]; in data set [13]; in data set [14]; in [15]; in data set [16]) was “metabolite_detected” each time. The Drug metabolism result in data set [17], in [18], in data set [19] and in data set [20] was “metabolite_detected” each time. The Drug uptake entry in the data set on Plasma [6] is given as “Active”; in data set [21], “Not Active”; in data set [22], “Not Active”.
For `CC(C)[C@]1(C)SC(N[C@H]2C[C@H]3C[C@@H]2C[C@H]3O[C@@H]2O[C@H](C(=O)O)[C@@H](O)[C@H](O)[C@H]2O)=NC1=O`, the Drug recovery in the data set with Rattus norvegicus [23] stood at 0.2%. Further, the Retention_time in data set [24] was 25.2 min.
